# According to patent US20260042755A1, “GPR6 INVERSE AGONISTS” (MapLight Therapeutics, Inc., priority 2022, published 2026):
# Assays:
# GPR6 = biological target: T1, GPR6 (Homo sapiens, UniProt P46095); experiment: GPR6 antagonist functional cAMP assay (LANCE Ultra cAMP TR-FRET, CHO cells stably expressing GPR6); format: cell-based
# T1 construct: expressed in transfected cells; host or cells: CHO cells
# In short: (§1)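 Compounds, at 0.1% final DMSO, acted on the cells for 45 minutes at 37 °C in the presence of the phosphodiesterase inhibitor Ro 20-1724 (150 μM). After lysis and detection, plates were shaken 1 h at room temperature and emission at 665 nm was recorded. Normalized data gave IC50 values.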
# GPR3 = biological target: T2, GPR3 (Homo sapiens, UniProt P46089); experiment: GPR3 antagonist functional cAMP assay (LANCE Ultra cAMP TR-FRET, CHO cells stably expressing GPR3); format: cell-based
# T2 construct: expressed in transfected cells; host or cells: CHO cells
# In short: as §1
# [1] = CHO cells stably expressing GPR6, cAMP assay (Example 24)
# [2] = CHO cells stably expressing GPR3, cAMP assay (Example 24)
# [3] = procedure as described in Example 24
# T2 sequence (P46089 whole entry, species assumed): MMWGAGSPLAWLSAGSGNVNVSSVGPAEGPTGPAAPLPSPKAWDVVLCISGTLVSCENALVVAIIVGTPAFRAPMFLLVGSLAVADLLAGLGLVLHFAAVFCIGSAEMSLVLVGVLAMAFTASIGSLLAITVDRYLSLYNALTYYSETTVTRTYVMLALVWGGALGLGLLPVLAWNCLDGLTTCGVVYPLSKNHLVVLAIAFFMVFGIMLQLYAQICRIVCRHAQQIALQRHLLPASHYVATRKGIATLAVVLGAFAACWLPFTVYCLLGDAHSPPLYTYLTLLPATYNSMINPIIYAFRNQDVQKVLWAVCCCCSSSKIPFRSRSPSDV
# T1 sequence (P46095 whole entry): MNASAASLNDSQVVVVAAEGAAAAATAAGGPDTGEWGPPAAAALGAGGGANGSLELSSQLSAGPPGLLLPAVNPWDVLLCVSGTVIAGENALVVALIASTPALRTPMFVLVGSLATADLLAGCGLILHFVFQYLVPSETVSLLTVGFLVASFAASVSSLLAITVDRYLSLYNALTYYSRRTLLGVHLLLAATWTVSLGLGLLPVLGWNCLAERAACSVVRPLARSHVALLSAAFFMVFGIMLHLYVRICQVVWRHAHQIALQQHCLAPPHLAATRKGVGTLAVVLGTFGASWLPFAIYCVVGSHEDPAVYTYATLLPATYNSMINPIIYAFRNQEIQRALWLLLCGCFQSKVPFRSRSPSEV
SMILES,IC50 (GPR6; [1]),IC50 (GPR3; [2]),IC50 (GPR6; procedure of Example 24),IC50 (GPR3; procedure of Example 24),other results
"C=CC(=O)N1CCc2nc(N3CCC(Oc4ccc(F)cc4F)CC3)c(-c3ccc(F)c(N)n3)nc2C1 [Compound 626, 1-{3-(6-amino-5-fluoro-2-pyridyl)-2-[4-(2,4-difluorophenoxy)-1-piperidyl]-5,6,7,8-tetrahydro-1,4,6-triaza-6-naphthyl}-2-propen-1-one]",–,–,< 0.1 µM,1 to 30 µM,–
"CC(=O)N1CCc2nc(N3CCC(Oc4ccc(F)cc4F)CC3)c(-c3cncc(OC(F)F)n3)nc2C1 [Compound 239, 1-{3-[6-(difluoromethoxy)pyrazin-2-yl]-2-[4-(2,4-difluorophenoxy)piperidin-1-yl]-5H,6H,7H,8H-pyrido[3,4-b]pyrazin-6-yl}ethan-1-one]",1 to 30 µM,1 to 30 µM,–,–,–
"COc1cnnc(-c2nc3c(nc2N2CCC(Oc4ccc(F)cc4F)CC2)CCN(C(C)=O)C3)c1 [Compound 192, 1-{2-[4-(2,4-difluorophenoxy)piperidin-1-yl]-3-(5-methoxypyridazin-3-yl)-5H,6H,7H,8H-pyrido[3,4-b]pyrazin-6-yl}ethan-1-one]",1 to 30 µM,1 to 30 µM,–,–,–
"Clc1ccc(Cl)c(CN2CCN(c3nc4ccncc4nc3-c3ncc[nH]3)CC2)c1 [Compound 5, 1-[(2,5-dichlorophenyl)methyl]-4-[3-(1H-imidazol-2-yl)pyrido[3,4-b]pyrazin-2-yl]piperazine]",–,–,–,–,IC50 (GPR6; [3]): 0.1 to 1 µM; IC50 (GPR3; [3]): 1 to 30 µM
"CC(=O)N1CCc2nc(N3CCC(Oc4ccc(F)cc4F)CC3)c(-c3cnn(C(C)(C)C#N)c3)nc2C1 [Compound 196, 2-(4-{6-acetyl-2-[4-(2,4-difluorophenoxy)piperidin-1-yl]-5H,6H,7H,8H-pyrido[3,4-b]pyrazin-3-yl}-1H-pyrazol-1-yl)-2-methylpropanenitrile]",1 to 30 µM,1 to 30 µM,–,–,–
"O=C(N1CCc2nc(N3CCC(Oc4ccc(F)cc4F)CC3)c(-c3cn[nH]c3)nc2C1)N1CC(O)C1 [Compound 206, 1-{2-[4-(2,4-difluorophenoxy)piperidin-1-yl]-3-(1H-pyrazol-4-yl)-5H,6H,7H,8H-pyrido[3,4-b]pyrazine-6-carbonyl}azetidin-3-ol]",0.1 to 1 µM,1 to 30 µM,–,–,–

# Further lines, with some results ahead:
IC50 (GPR6; [1]),IC50 (GPR3; [2]),IC50 (GPR6; procedure of Example 24),IC50 (GPR3; procedure of Example 24),SMILES,other results
0.1 to 1 µM,1 to 30 µM,–,–,"C[C@H]1CN(Cc2ccc(F)cc2F)CCN1c1nc2ccncc2nc1-c1cnn(C)c1 (single isomer, unassigned) [Compound 225]",–
–,–,0.1 to 1 µM,1 to 30 µM,"Cn1cc(-c2nc3c(Cl)nccc3nc2N2CCC(Oc3ccc(F)cc3F)CC2)cn1 [Compound 328, 1-[5-chloro-3-(1-methyl-1H-pyrazol-4-yl)pyrido[3,4-b]pyrazin-2-yl]-4-(2,4-difluorophenoxy)piperidine]",–
–,–,< 0.1 µM,1 to 30 µM,"CCn1cc(-c2nc3cnccc3nc2N2CCC(Oc3cc(Cl)ccc3F)CC2)cn1 [Compound 295, 4-(5-chloro-2-fluorophenoxy)-1-[3-(1-ethyl-1H-pyrazol-4-yl)pyrido[3,4-b]pyrazin-2-yl]piperidine]",–
1 to 30 µM,1 to 30 µM,–,–,"Cn1cc(-c2nc3cnc(C(O)CO)cc3nc2N2CCC(Oc3ccc(F)cc3F)CC2)cn1 (centres unmarked) [Compound 470, 1-(2-(4-(2,4-difluorophenoxy)piperidin-1-yl)-3-(1-methyl-1H-pyrazol-4-yl)pyrido[3,4-b]pyrazin-7-yl)ethane-1,2-diol]",–
1 to 30 µM,1 to 30 µM,–,–,"Cn1cc(-c2nc3cn(C)c(=O)cc3nc2N2CCC(Oc3ccc(F)cc3F)CC2)cn1 [Compound 447, 2-[4-(2,4-difluorophenoxy)piperidin-1-yl]-6-methyl-3-(1-methyl-1H-pyrazol-4-yl)-6H,7H-pyrido[3,4-b]pyrazin-7-one]",–
1 to 30 µM,1 to 30 µM,–,–,"Cn1cc(-c2nc3cnc(OCCO)cc3nc2N2CCC(Oc3ccc(F)cc3F)CC2)cn1 [Compound 399, 2-({2-[4-(2,4-difluorophenoxy)piperidin-1-yl]-3-(1-methyl-1H-pyrazol-4-yl)pyrido[3,4-b]pyrazin-7-yl}oxy)ethan-1-ol]",–
–,–,0.1 to 1 µM,1 to 30 µM,"CC(C)(O)[C@@](C)(O)c1cc2nc(N3CCC(Oc4ccc(F)cc4F)CC3)c(-c3cnn(CF)c3)nc2cn1 (single isomer, unassigned) [Compound 678]",–
